Experimental data published in US20050209278A1, “Piperidinyl- and piperazinyl-sulfonylmethyl hydroxamic acids and their use as protease inhibitors” (priority 2002, published 2005).
Where “and” joins values, the source holds several entries; their conditions need not be identical. Identical values can stand only once.

Molecular target: T1, MMP-1 (Homo sapiens, UniProt P03956)
T1 construct: made in house; host or cells: MMP-1-transfected HT-1080 cells (spent media)
T1 sequence (P03956 100-469): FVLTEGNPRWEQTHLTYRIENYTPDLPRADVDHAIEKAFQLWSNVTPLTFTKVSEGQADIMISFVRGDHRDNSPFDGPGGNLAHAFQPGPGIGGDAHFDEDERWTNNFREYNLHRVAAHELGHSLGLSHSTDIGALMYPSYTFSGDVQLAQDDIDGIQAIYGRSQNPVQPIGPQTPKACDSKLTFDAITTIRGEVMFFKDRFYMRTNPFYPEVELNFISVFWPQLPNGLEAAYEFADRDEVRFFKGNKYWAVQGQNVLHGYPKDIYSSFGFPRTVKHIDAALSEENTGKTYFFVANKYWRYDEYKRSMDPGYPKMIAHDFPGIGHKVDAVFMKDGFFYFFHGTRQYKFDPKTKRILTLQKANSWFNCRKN
Assay: In vitro MMP inhibition, Ki determination (fluorogenic substrate II)
Assay type: biochemical
Conditions: value outside parentheses; read-out: MMP-1 Ki

Row | Compound | Ki
1 | CCc1ccc(C2CCN(S(=O)(=O)C3(C(=O)NO)CCN(CCOC)CC3)CC2)s1 [Example 314] | > 10 µM
2 | O=C(NO)C1(S(=O)(=O)N2CCC(N3CCN(c4ccc(Cl)cc4)CC3)CC2)CCOCC1 [Example 315] | > 10 µM
3 | O=C(NO)C1(S(=O)(=O)N2CCN(c3ccc(-c4ccc(F)cc4F)cn3)CC2)CCOCC1 [Example 316] | 5.52 µM
4 | COc1ccccc1-c1ccc(N2CCN(S(=O)(=O)C3(C(=O)NO)CCOCC3)CC2)nc1 [Example 318] | > 10 µM
5 | O=C(NO)C1(S(=O)(=O)N2CCN(c3ccc(-c4cccc(OC(F)(F)F)c4)cn3)CC2)CCOCC1 [Example 319] | > 10 µM
6 | O=C(NO)C1(S(=O)(=O)N2CCN(c3ccc(CCCC(F)(F)F)cc3)CC2)CCOCC1 [Example 320] | > 10 µM
7 | O=C(NO)C1(S(=O)(=O)N2CCN(c3cnn(CCCC(F)(F)F)c(=O)c3)CC2)CCOCC1 [Example 321] | > 10 µM
8 | O=C(NO)C1(S(=O)(=O)N2CCN(c3cnn(-c4ccccc4)c(=O)c3)CC2)CCOCC1 [Example 322] | > 10 µM
9 | CCCCc1ccc(C2CCN(S(=O)(=O)C3(C(=O)NO)CCOCC3)CC2)nc1 [Example 323] | 6.21 µM
10 | CCCCOc1ccc(N2CCN(S(=O)(=O)C3(C(=O)NO)CCN(CCOC)CC3)CC2)nc1 [Example 325] | 7.51 µM
11 | O=C(NO)C1(S(=O)(=O)N2CCN(c3ccc(OCC(F)(F)C(F)F)cc3)CC2)CCOCC1 [Example 326] | 6.58 µM
12 | O=C(NO)C1(S(=O)(=O)N2CCN(c3ccc(-c4ccc(OC(F)(F)F)cc4)cc3)CC2)CCOCC1 [Example 327] | 7.3 µM
13 | O=C(NO)C1(S(=O)(=O)N2CCN(c3cnn(-c4ccccc4)c(=O)c3Cl)CC2)CCOCC1 [Example 329] | > 10 µM
14 | O=C(NO)C1(S(=O)(=O)N2CCN(c3ccc(OCC4CC4)c(F)c3)CC2)CCOCC1 [Example 333] | > 10 µM
15 | CCCCc1cnc(N2CCN(S(=O)(=O)C3(C(=O)NO)CCN(CCOC)CC3)CC2)nc1 [Example 334] | > 10 µM
16 | O=C(NO)C1(S(=O)(=O)N2CCN(c3ccc(CCC(F)(F)C(F)(F)F)cc3)CC2)CCN(C2CC2)CC1 [Example 335] | > 10 µM
17 | O=C(NO)C1(S(=O)(=O)N2CCC(c3ccc(CCCC(F)(F)F)cn3)CC2)CCOCC1 [Example 338] | 9.86 µM
18 | O=C(NO)C1(S(=O)(=O)N2CCC(c3ccc(CCC(F)(F)C(F)(F)F)cn3)CC2)CCOCC1 [Example 340] | 5.86 µM
19 | CCN1CCC(C(=O)NO)(S(=O)(=O)N2CCN(c3ccc(-c4ccccc4)c(F)c3)CC2)CC1 [Example 341] | > 10 µM
20 | O=C(NO)C1(S(=O)(=O)N2CCN(c3ccc(OCCCC(F)(F)F)cc3)CC2)CC(O)C1 (stereo not drawn) [Example 342] | > 10 µM
21 | O=C(NO)C1(S(=O)(=O)N2CCN(c3ncc(-c4ccc(F)cc4)s3)CC2)CCOCC1 [Example 345] | 5.54 µM
22 | O=C(NO)C1(S(=O)(=O)N2CCN(c3ncc(-c4ccc(C(F)(F)F)cc4)s3)CC2)CCOCC1 [Example 346] | 5.69 µM
23 | Cc1ccccc1-c1cnc(N2CCN(S(=O)(=O)C3(C(=O)NO)CCOCC3)CC2)s1 [Example 348] | > 10 µM
24 | O=C(NO)C1(S(=O)(=O)N2CCC(c3ccc(OC(F)(F)C(F)(F)F)cc3)CC2)CCOCC1 [Example 349] | > 10 µM
25 | O=C(NO)C1(S(=O)(=O)N2CCC(c3ccc(OCC(F)(F)C(F)F)cc3)CC2)CCN(C2CC2)CC1 [Example 350] | > 10 µM

Row | Compound | Ki
26 | O=C(NO)C1(S(=O)(=O)N2CCC(c3ccc(CCCC(F)(F)F)cc3)CC2)CCN(C2CC2)CC1 [Example 351] | > 10 µM
27 | O=C(O)c1ccc(N2CCN(S(=O)(=O)C3(C(=O)NO)CCOCC3)CC2)cc1 [Example 352] | > 10 µM
28 | O=C(NO)C1(S(=O)(=O)N2CCC(c3ccc(CCCC(F)(F)F)cc3)CC2)CCOCC1 [Example 353] | 8.58 µM
29 | CCCCOc1cccc(N2CCN(S(=O)(=O)C3(C(=O)NO)CCOCC3)CC2)c1 [Example 354] | > 10 µM
30 | O=C(NO)C1(S(=O)(=O)N2CCN(c3cccc(OCCCC(F)(F)F)c3)CC2)CCOCC1 [Example 355] | > 10 µM
31 | CCCCCc1cccc(N2CCN(S(=O)(=O)C3(C(=O)NO)CCOCC3)CC2)c1 [Example 356] | > 10 µM
32 | O=C(NO)C1(S(=O)(=O)N2CCN(c3ccc(CCCC(F)(F)F)cn3)CC2)CCOCC1 [Example 358] | > 10 µM
33 | O=C(NO)C1(S(=O)(=O)N2CCN(c3ncc(-c4ccc(-c5ccccc5)cc4)s3)CC2)CCOCC1 [Example 360] | > 2.5 µM
34 | O=C(NO)C1(S(=O)(=O)N2CCN(c3ncc(/C=C/c4ccccc4)s3)CC2)CCOCC1 [Example 361] | > 2.5 µM
35 | O=C(NO)C1(S(=O)(=O)N2CCN(c3ncc(-c4cccc(-c5ccccc5)c4)s3)CC2)CCOCC1 [Example 365] | > 10 µM
36 | O=C(NO)C1(S(=O)(=O)N2CCC(c3ccc(CCC(F)(F)F)cn3)CC2)CCOCC1 [Example 367] | 9.76 µM
37 | O=C(NO)C1(S(=O)(=O)N2CCN(c3ncc(-c4ccc(Cl)c(Cl)c4)s3)CC2)CCOCC1 [Example 369] | > 10 µM
38 | Cc1cccc(-c2cnc(N3CCN(S(=O)(=O)C4(C(=O)NO)CCOCC4)CC3)s2)c1 [Example 370] | 5.74 µM
39 | COc1ccc(-c2cnc(N3CCN(S(=O)(=O)C4(C(=O)NO)CCOCC4)CC3)s2)cc1OC [Example 371] | 8.25 µM
40 | O=C(NO)C1(S(=O)(=O)N2CCN(c3ccc(-c4ccccc4)cn3)CC2)CCOCC1 [Example 372] | 0.611 µM and 0.795 µM
41 | O=C(NO)C1(S(=O)(=O)N2CCC(COCc3ccccc3)CC2)CCOCC1 [Example 373] | > 10 µM
42 | O=C(NO)C1(S(=O)(=O)N2CCC(COCC(F)(F)C(F)F)CC2)CCOCC1 [Example 375] | > 10 µM
43 | O=C(NO)C1(S(=O)(=O)N2CCC(COCC(F)(F)C(F)(F)F)CC2)CCOCC1 [Example 376] | > 10 µM
44 | O=C(NO)C1(S(=O)(=O)N2CCC(COCC(F)(F)C(F)(F)C(F)(F)F)CC2)CCOCC1 [Example 377] | > 10 µM
45 | O=C(NO)C1(S(=O)(=O)N2CCC(COCC(F)(F)C(F)(F)C(F)(F)C(F)F)CC2)CCOCC1 [Example 378] | > 10 µM
46 | CCCCc1ccc(-c2cnc(N3CCN(S(=O)(=O)C4(C(=O)NO)CCOCC4)CC3)s2)cc1 [Example 379] | > 10 µM
47 | CCCCCc1ccc(-c2cnc(N3CCN(S(=O)(=O)C4(C(=O)NO)CCOCC4)CC3)s2)cc1 [Example 380] | > 10 µM
48 | NC(=O)c1ccccc1-c1cnc(N2CCN(S(=O)(=O)C3(C(=O)NO)CCOCC3)CC2)s1 [Example 383] | > 10 µM
49 | O=C(NO)C1(S(=O)(=O)N2CCC(c3ccc(OCC(F)(F)C(F)F)cc3)CC2)CCN(CCN2CCOCC2)CC1 [Example 385] | > 10 µM
50 | O=C(NO)C1(S(=O)(=O)N2CCN(c3ccc(CCCC(F)(F)F)cc3F)CC2)CCOCC1 [Example 386] | > 10 µM

More lines, in order of falling Ki, values ahead:

Row | Ki | Compound
51 | 5.36 µM | O=C(NO)C1(S(=O)(=O)N2CCC(c3ccc(OCC(F)(F)C(F)(F)F)cc3)CC2)CCOCC1 [Example 330]
52 | 5.25 µM | O=C(NO)C1(S(=O)(=O)N2CCN(c3ncc(-c4ccc(Cl)cc4)s3)CC2)CCOCC1 [Example 343]
53 | 5.11 µM | COCCN1CCC(C(=O)NO)(S(=O)(=O)N2CCN(c3ncccn3)CC2)CC1 [Example 332]
54 | 3.94 µM | O=C(NO)C1(S(=O)(=O)N2CCN(c3ncc(-c4ccc(OC(F)(F)F)cc4)s3)CC2)CCOCC1 [Example 364]
55 | 3.78 µM | O=C(NO)C1(S(=O)(=O)N2CCC(c3ccc(OCC(F)(F)F)cc3)CC2)CCOCC1 [Example 357]
56 | 3.72 µM | O=C(NO)C1(S(=O)(=O)N2CCN(c3ccc(-c4ccc(Cl)c(Cl)c4)cc3)CC2)CCOCC1 [Example 328]
57 | 3.52 µM | Cc1ccc(-c2cnc(N3CCN(S(=O)(=O)C4(C(=O)NO)CCOCC4)CC3)s2)cc1 [Example 344]
58 | 3.35 µM | O=C(NO)C1(S(=O)(=O)N2CCN(c3ncc(-c4ccc(O)cc4)s3)CC2)CCOCC1 [Example 368]
59 | 3.29 µM | O=C(NO)C1(S(=O)(=O)N2CCC(c3ccc(OC(F)(F)C(F)F)cc3)CC2)CCOCC1 [Example 337]
60 | 3.25 µM | CCc1ccc(-c2cnc(N3CCN(S(=O)(=O)C4(C(=O)NO)CCOCC4)CC3)s2)cc1 [Example 381]
61 | 2.77 µM | CC(C)(C)c1ccc(-c2cnc(N3CCN(S(=O)(=O)C4(C(=O)NO)CCOCC4)CC3)s2)cc1 [Example 347]
62 | 2.69 µM | O=C(NO)C1(S(=O)(=O)N2CCN(c3ncc(-c4cccnc4)s3)CC2)CCOCC1 [Example 382]
63 | 2.64 µM | O=C(NO)C1(S(=O)(=O)N2CCN(c3ccc(OCC(F)(F)C(F)F)cc3)CC2)CCOCC1 [Example 336]
64 | 2.6 µM | O=C(NO)C1(S(=O)(=O)N2CCN(c3ncc(-c4ccc(F)cc4F)s3)CC2)CCOCC1 [Example 359]
65 | 2.41 µM | O=C(NO)C1(S(=O)(=O)N2CCN(c3ccc(-c4ccccc4F)cn3)CC2)CCOCC1 [Example 317]
66 | 2.35 µM | O=C(NO)C1(S(=O)(=O)N2CCN(c3ncc(-c4ccc([N+](=O)[O-])cc4)s3)CC2)CCOCC1 [Example 363]
67 | 2.16 µM | CC(C)c1ccc(-c2cnc(N3CCN(S(=O)(=O)C4(C(=O)NO)CCOCC4)CC3)s2)cc1 [Example 366]
68 | 2.12 µM | O=C(NO)C1(S(=O)(=O)N2CCN(c3ncc(-c4ccc5c(c4)OCO5)s3)CC2)CCOCC1 [Example 362]
69 | 1.86 µM | COC(=O)c1ccc(N2CCN(S(=O)(=O)C3(C(=O)NO)CCOCC3)CC2)cc1 [Example 324]
70 | 0.303 µM | CCC=C1CCN(S(=O)(=O)C2(C(=O)NO)CCOCC2)CC1 [Example 374]
71 | 0.279 µM | O=C(NO)C1(S(=O)(=O)N2CCN(c3ccc(Br)cn3)CC2)CCOCC1 [Example 331]
72 | 0.266 µM | N#Cc1cccc(-c2cnc(N3CCN(S(=O)(=O)C4(C(=O)NO)CCOCC4)CC3)s2)c1 [Example 384]
